Measurements published in ChEMBL document CHEMBL3885881, “DrugMatrix”.

Species: Rattus norvegicus
Assay: DrugMatrix - Regimen: Daily Repeat
Type: toxicity, organism-based, Sprague-Dawley
Design: regimen Daily Repeat, gender Male, age 6-8 weeks
Settings: in vivo, po, route oral GAVAGE, vehicle 100 % WATER; for ABSOLUTE BASOPHIL / ABSOLUTE EOSINOPHIL / ABSOLUTE LYMPHOCYTE / ABSOLUTE MONOCYTE / ABSOLUTE SEGMENTED NEUTROPHIL / BASOPHIL / EOSINOPHIL / ERYTHROCYTE COUNT / HEMATOCRIT / HEMOGLOBIN / LEUKOCYTE COUNT / LYMPHOCYTE / MEAN CORPUSCULAR HEMOGLOBIN / MEAN CORPUSCULAR HEMOGLOBIN CONCENTRATION / MEAN CORPUSCULAR VOLUME / MONOCYTE / NEUTROPHIL / NUCLEATED RED BLOOD CELLS / PLATELET COUNT: tissue Blood; for ALANINE AMINOTRANSFERASE / ALBUMIN / ALKALINE PHOSPHATASE / ASPARTATE AMINOTRANSFERASE / BLOOD UREA NITROGEN / CARBON DIOXIDE / CHLORIDE / CHOLESTEROL / CREATINE PHOSPHOKINASE / CREATININE / GLUCOSE / LACTATE DEHYDROGENASE / LIPASE / PHOSPHORUS / POTASSIUM / SODIUM / TOTAL BILIRUBIN / TOTAL PROTEIN / URIC ACID: tissue Plasma
[1] = 13 mg/kg, 72 h, dose level Low, time 3 day
[2] = 13 mg/kg, 120 h, dose level Low, time 5 day
[3] = 300 mg/kg, 72 h, dose level High, time 3 day
[4] = 300 mg/kg, 120 h, dose level High, time 5 day

OC(CCCN1CCCCC1)(c1ccccc1)c1ccccc1 [DIPHENIDOL]
ABSOLUTE BASOPHIL [1]: 0 CELLS/uL | ABSOLUTE EOSINOPHIL [1]: 54.67 CELLS/uL | ABSOLUTE LYMPHOCYTE [1]: 13934 CELLS/uL | ABSOLUTE MONOCYTE [1]: 204 CELLS/uL | ABSOLUTE SEGMENTED NEUTROPHIL [1]: 740.67 CELLS/uL | BASOPHIL [1]: 0% | EOSINOPHIL [1]: 0.33% | ERYTHROCYTE COUNT [1]: 5.67 x10E6/uL | HEMATOCRIT [1]: 36.33% | HEMOGLOBIN [1]: 14.43 G/DL | LEUKOCYTE COUNT [1]: 14.93 x10E3/uL | LYMPHOCYTE [1]: 93.33% | MEAN CORPUSCULAR HEMOGLOBIN [1]: 25.47 pg | MEAN CORPUSCULAR HEMOGLOBIN CONCENTRATION [1]: 39.7 G/DL | MEAN CORPUSCULAR VOLUME [1]: 64.07 fL | MONOCYTE [1]: 1.33% | NEUTROPHIL [1]: 5% | NUCLEATED RED BLOOD CELLS [1]: 0 /100WBC | PLATELET COUNT [1]: 1276.67 x10E3/uL | ALANINE AMINOTRANSFERASE [1]: 58.33 u/L | ALBUMIN [1]: 4.23 G/DL | ALKALINE PHOSPHATASE [1]: 408.67 u/L | ASPARTATE AMINOTRANSFERASE [1]: 99.33 u/L | BLOOD UREA NITROGEN [1]: 17.33 mg/dL | CARBON DIOXIDE [1]: 25 mmol/L | CHLORIDE [1]: 102.33 MEQ/L | CHOLESTEROL [1]: 72 mg/dL | CREATINE PHOSPHOKINASE [1]: 574 u/L | CREATININE [1]: 0.29 mg/dL | GLUCOSE [1]: 169.33 mg/dL | LACTATE DEHYDROGENASE [1]: 402.67 u/L | LIPASE [1]: 9.67 u/L | PHOSPHORUS [1]: 13.97 mg/dL | POTASSIUM [1]: 7.15 MEQ/L | SODIUM [1]: 146.43 MEQ/L | TOTAL BILIRUBIN [1]: 0.2 mg/dL | TOTAL PROTEIN [1]: 5.77 G/DL | URIC ACID [1]: 3.3 mg/dL | ABSOLUTE BASOPHIL [2]: 0 CELLS/uL | ABSOLUTE EOSINOPHIL [2]: 69 CELLS/uL | ABSOLUTE LYMPHOCYTE [2]: 13769 CELLS/uL | ABSOLUTE MONOCYTE [2]: 0 CELLS/uL | ABSOLUTE SEGMENTED NEUTROPHIL [2]: 1595.33 CELLS/uL | BASOPHIL [2]: 0% | EOSINOPHIL [2]: 0.33% | ERYTHROCYTE COUNT [2]: 5.45 x10E6/uL | HEMATOCRIT [2]: 34.73% | HEMOGLOBIN [2]: 13.73 G/DL | LEUKOCYTE COUNT [2]: 15.43 x10E3/uL | LYMPHOCYTE [2]: 89.67% | MEAN CORPUSCULAR HEMOGLOBIN [2]: 25.2 pg | MEAN CORPUSCULAR HEMOGLOBIN CONCENTRATION [2]: 39.53 G/DL | MEAN CORPUSCULAR VOLUME [2]: 63.8 fL | MONOCYTE [2]: 0% | NEUTROPHIL [2]: 10% | NUCLEATED RED BLOOD CELLS [2]: 0 /100WBC | PLATELET COUNT [2]: 1177.33 x10E3/uL | ALANINE AMINOTRANSFERASE [2]: 49 u/L | ALBUMIN [2]: 4.23 G/DL | ALKALINE PHOSPHATASE [2]: 358.67 u/L | ASPARTATE AMINOTRANSFERASE [2]: 78 u/L | BLOOD UREA NITROGEN [2]: 18.67 mg/dL | CARBON DIOXIDE [2]: 28 mmol/L | CHLORIDE [2]: 101.67 MEQ/L | CHOLESTEROL [2]: 68.67 mg/dL | CREATINE PHOSPHOKINASE [2]: 194.33 u/L | CREATININE [2]: 0.17 mg/dL | GLUCOSE [2]: 148.33 mg/dL | LACTATE DEHYDROGENASE [2]: 83.67 u/L | LIPASE [2]: 9 u/L | PHOSPHORUS [2]: 12.13 mg/dL | POTASSIUM [2]: 6.32 MEQ/L | SODIUM [2]: 146.57 MEQ/L | TOTAL BILIRUBIN [2]: 0.17 mg/dL | TOTAL PROTEIN [2]: 5.97 G/DL | URIC ACID [2]: 1.13 mg/dL | ABSOLUTE BASOPHIL [3]: 0 CELLS/uL | ABSOLUTE EOSINOPHIL [3]: 58 CELLS/uL | ABSOLUTE LYMPHOCYTE [3]: 16577.33 CELLS/uL | ABSOLUTE MONOCYTE [3]: 58 CELLS/uL | ABSOLUTE SEGMENTED NEUTROPHIL [3]: 1540 CELLS/uL | BASOPHIL [3]: 0% | EOSINOPHIL [3]: 0.33% | ERYTHROCYTE COUNT [3]: 5.58 x10E6/uL | HEMATOCRIT [3]: 35.57% | HEMOGLOBIN [3]: 14.3 G/DL | LEUKOCYTE COUNT [3]: 18.23 x10E3/uL | LYMPHOCYTE [3]: 91% | MEAN CORPUSCULAR HEMOGLOBIN [3]: 25.63 pg | MEAN CORPUSCULAR HEMOGLOBIN CONCENTRATION [3]: 40.17 G/DL | MEAN CORPUSCULAR VOLUME [3]: 63.8 fL | MONOCYTE [3]: 0.33% | NEUTROPHIL [3]: 8.33% | NUCLEATED RED BLOOD CELLS [3]: 0 /100WBC | PLATELET COUNT [3]: 1352.67 x10E3/uL | ALANINE AMINOTRANSFERASE [3]: 52 u/L | ALBUMIN [3]: 4.3 G/DL | ALKALINE PHOSPHATASE [3]: 318.33 u/L | ASPARTATE AMINOTRANSFERASE [3]: 74 u/L | BLOOD UREA NITROGEN [3]: 15.67 mg/dL | CARBON DIOXIDE [3]: 24.67 mmol/L | CHLORIDE [3]: 103.33 MEQ/L | CHOLESTEROL [3]: 80.33 mg/dL | CREATINE PHOSPHOKINASE [3]: 184 u/L | CREATININE [3]: 0.24 mg/dL | GLUCOSE [3]: 156.67 mg/dL | LACTATE DEHYDROGENASE [3]: 139.67 u/L | LIPASE [3]: 9 u/L | PHOSPHORUS [3]: 13.97 mg/dL | POTASSIUM [3]: 7.22 MEQ/L | SODIUM [3]: 146.87 MEQ/L | TOTAL BILIRUBIN [3]: 0.13 mg/dL | TOTAL PROTEIN [3]: 6.27 G/DL | URIC ACID [3]: 1.77 mg/dL | ABSOLUTE BASOPHIL [4]: 0 CELLS/uL | ABSOLUTE EOSINOPHIL [4]: 44 CELLS/uL | ABSOLUTE LYMPHOCYTE [4]: 14983.33 CELLS/uL | ABSOLUTE MONOCYTE [4]: 56.33 CELLS/uL | ABSOLUTE SEGMENTED NEUTROPHIL [4]: 783 CELLS/uL | BASOPHIL [4]: 0% | EOSINOPHIL [4]: 0.33% | ERYTHROCYTE COUNT [4]: 5.89 x10E6/uL | HEMATOCRIT [4]: 35.8% | HEMOGLOBIN [4]: 14.47 G/DL | LEUKOCYTE COUNT [4]: 15.87 x10E3/uL | LYMPHOCYTE [4]: 94.33% | MEAN CORPUSCULAR HEMOGLOBIN [4]: 24.63 pg | MEAN CORPUSCULAR HEMOGLOBIN CONCENTRATION [4]: 40.43 G/DL | MEAN CORPUSCULAR VOLUME [4]: 60.97 fL | MONOCYTE [4]: 0.33% | NEUTROPHIL [4]: 5% | NUCLEATED RED BLOOD CELLS [4]: 0.33 /100WBC | PLATELET COUNT [4]: 1311 x10E3/uL | ALANINE AMINOTRANSFERASE [4]: 67.67 u/L | ALBUMIN [4]: 4.47 G/DL | ALKALINE PHOSPHATASE [4]: 383 u/L | ASPARTATE AMINOTRANSFERASE [4]: 106.33 u/L | BLOOD UREA NITROGEN [4]: 14.33 mg/dL | CARBON DIOXIDE [4]: 23 mmol/L | CHLORIDE [4]: 101 MEQ/L | CHOLESTEROL [4]: 53.67 mg/dL | CREATINE PHOSPHOKINASE [4]: 291 u/L | CREATININE [4]: 0.27 mg/dL | GLUCOSE [4]: 161 mg/dL | LACTATE DEHYDROGENASE [4]: 445 u/L | LIPASE [4]: 11 u/L | PHOSPHORUS [4]: 14.9 mg/dL | POTASSIUM [4]: 6.65 MEQ/L | SODIUM [4]: 146.5 MEQ/L | TOTAL BILIRUBIN [4]: 0.1 mg/dL | TOTAL PROTEIN [4]: 6.2 G/DL | URIC ACID [4]: 2.83 mg/dL
